Laboratory results taken from ChEMBL document CHEMBL1201862, “PubChem BioAssay data set” (2004).
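Step 1: Grow cells in 96-well plates. Step 2: Expose to compound for 48 hours at 5 concentrations. Step 3: Interpolate endpoints linearly; if unreached, use highest concentration. At the GI50, growth is halved.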 The source made the active and inactive calls. Cut-off read from the data, not from the text of the source: active = GI50 up to about 1.1 µM and inactive = higher.

What was measured:
Experiment in all cases: inhibition of tumour cell growth, NCI panel, 48 h
786-0 = tested on: 786-0
A498 = tested on: A498
A549 = tested on: A549
ACHN = tested on: ACHN
CAKI-1 = tested on: CAKI-1
CCRF-CEM = tested on: CCRF-CEM
COLO 205 = tested on: COLO 205
DMS-273 = tested on: DMS-273
EKVX = tested on: EKVX
HCT-116 = tested on: HCT-116
HCT-15 = tested on: HCT-15
HL-60 = tested on: HL-60
HOP-62 = tested on: HOP-62
HOP-92 = tested on: HOP-92
HT-29 = tested on: HT-29
IGROV-1 = tested on: IGROV-1
K562 = tested on: K562
KM-20L2 = tested on: KM-20L2
KM12 = tested on: KM12
LOX IMVI = tested on: LOX IMVI
LXFL 529 = tested on: LXFL 529
M14 = tested on: M14
MOLT-4 = tested on: MOLT-4
NCI-H226 = tested on: NCI-H226
NCI-H23 = tested on: NCI-H23
NCI-H460 = tested on: NCI-H460
NCI-H522 = tested on: NCI-H522
OVCAR-3 = tested on: OVCAR-3
OVCAR-4 = tested on: OVCAR-4
OVCAR-5 = tested on: OVCAR-5
OVCAR-8 = tested on: OVCAR-8
RPMI-8226 = tested on: RPMI-8226
RXF 393 = tested on: RXF 393
SF-268 = tested on: SF-268
SF-295 = tested on: SF-295
SF-539 = tested on: SF-539
SK-MEL-28 = tested on: SK-MEL-28
SK-MEL-2 = tested on: SK-MEL-2
SK-OV-3 = tested on: SK-OV-3
SN12C = tested on: SN12C
SNB-19 = tested on: SNB-19
SNB-75 = tested on: SNB-75
SNB-78 = tested on: SNB-78
SR = tested on: SR
SW-620 = tested on: SW-620
TK-10 = tested on: TK-10
U-251 = tested on: U-251
UACC-257 = tested on: UACC-257
UACC-62 = tested on: UACC-62
UO-31 = tested on: UO-31
XF498 = tested on: XF498

## CN(C)C(=S)/N=c1\ss/c(=N\C(=S)N(C)C)n1-c1ccc(Cl)cc1
786-0
  GI50: > 100 µM (inactive)
A498
  GI50: > 100 µM (inactive)
A549
  GI50: > 100 µM (inactive)
ACHN
  GI50: > 100 µM (inactive)
CAKI-1
  GI50: > 100 µM (inactive)
CCRF-CEM
  GI50: > 100 µM (inactive)
COLO 205
  GI50: > 100 µM (inactive)
DMS-273
  GI50: 39.9 µM (inactive)
EKVX
  GI50: > 100 µM (inactive)
HCT-116
  GI50: > 100 µM (inactive)
HCT-15
  GI50: > 100 µM
HL-60
  GI50: > 100 µM (inactive)
HOP-62
  GI50: > 100 µM (inactive)
HOP-92
  GI50: > 100 µM (inactive)
HT-29
  GI50: > 100 µM (inactive)
IGROV-1
  GI50: > 100 µM (inactive)
K562
  GI50: > 100 µM (inactive)
KM-20L2
  GI50: > 100 µM (inactive)
KM12
  GI50: > 100 µM (inactive)
LOX IMVI
  GI50: > 100 µM (inactive)
LXFL 529
  GI50: > 100 µM (inactive)
M14
  GI50: > 100 µM (inactive)
MOLT-4
  GI50: > 100 µM (inactive)
NCI-H226
  GI50: > 100 µM (inactive)
NCI-H23
  GI50: > 100 µM (inactive)
NCI-H460
  GI50: > 100 µM (inactive)
NCI-H522
  GI50: 87.9 µM (inactive)
OVCAR-3
  GI50: > 100 µM (inactive)
OVCAR-4
  GI50: > 10 µM (inactive)
OVCAR-5
  GI50: > 100 µM (inactive)
OVCAR-8
  GI50: > 100 µM (inactive)
RPMI-8226
  GI50: > 100 µM (inactive)
RXF 393
  GI50: > 100 µM (inactive)
SF-268
  GI50: > 100 µM (inactive)
SF-295
  GI50: > 100 µM (inactive)
SF-539
  GI50: > 100 µM (inactive)
SK-MEL-28
  GI50: > 100 µM (inactive)
SK-MEL-2
  GI50: > 100 µM (inactive)
SK-OV-3
  GI50: > 100 µM (inactive)
SN12C
  GI50: > 100 µM (inactive)
SNB-19
  GI50: > 100 µM (inactive)
SNB-75
  GI50: 3.33 µM (inactive)
SNB-78
  GI50: > 100 µM (inactive)
SR
  GI50: > 100 µM (inactive)
SW-620
  GI50: > 100 µM (inactive)
TK-10
  GI50: > 100 µM (inactive)
U-251
  GI50: > 100 µM (inactive)
UACC-257
  GI50: > 100 µM (inactive)
UACC-62
  GI50: > 100 µM (inactive)
UO-31
  GI50: > 100 µM (inactive)
XF498
  GI50: > 100 µM (inactive)
